Activity calls are given as the source filed them. How the calls were made is not given here.
System: rodent carcinogenicity bioassays, tumor incidence
Assay: CCRIS carcinogenicity studies
Procedure, shortened: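 Archive of carcinogenicity, mutagenicity, tumor promotion and tumor inhibition results drawn from journals, NCI reports and other sources, expert-reviewed; covers 1985-2011 and is no longer updated.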

`CN(C=O)N=O` was tested, and the carcinogen call (Species: HAMSTER, Strain/Sex: SYRIAN/FEMALE, Route: GAVAGE, Dose: 0, 0.6 MG IN CORN OIL 1/WK FOR 15 WK (STUDY DURATION: 30 WK)) was “inactive; negative”, the carcinogen call (Species: HAMSTER, Strain/Sex: SYRIAN/MALE, Route: GAVAGE, Dose: 0, 0.6 MG IN CORN OIL 1/WK FOR 15 WK (STUDY DURATION: 35 WK), Tumor Site: Type of Lesion: FORESTOMACH: TUMOR) was “active; positive” and the carcinogen call (Species: RAT, Strain/Sex: F344/FEMALE, Route: GAVAGE, Dose: 0, 0.6 MG IN CORN OIL 2/WK FOR 20 WK (STUDY DURATION: 40 WK), Tumor Site: Type of Lesion: FORESTOMACH: TUMOR, ESOPHAGUS: TUMOR) was “active; positive”. For the same molecule, the carcinogen call (Species: RAT, Strain/Sex: F344/MALE, Route: GAVAGE, Dose: 0, 0.6 MG IN CORN OIL 2/WK FOR 20 WK (STUDY DURATION: 40 WK), Tumor Site: Type of Lesion: FORESTOMACH: TUMOR) was “active; positive”.

With `CCCCC(CC)COS(=O)(=O)O` (centres undefined) the carcinogen call (Species: MOUSE, Strain/Sex: B6C3F1/FEMALE, Route: ORAL, Dose: 0, 10000, 20000 PPM IN DIET FOR 102-104 WK (STUDY DURATION: 102-104 WK), Dose: 0, 10000, 20000 PPM IN DIET FOR 102-104 WK (STUDY DURATION: 102-104 WK), Tumor Site: Type of Lesion: LIVER: CARCINOMA, CARCINOMA OR ADENOMA) was “active; positive”, the carcinogen call (Species: MOUSE, Strain/Sex: B6C3F1/MALE, Route: ORAL, Dose: 0, 5000, 10000 PPM IN DIET FOR 102-104 WK (STUDY DURATION: 102-104 WK), Dose: 0, 5000, 10000 PPM IN DIET FOR 102-104 WK (STUDY DURATION: 102-104 WK)) was “inactive; negative” and the carcinogen call (Species: RAT, Strain/Sex: F344/FEMALE, Route: ORAL, Dose: 0, 10000, 20000 PPM IN DIET FOR 102-104 WK (STUDY DURATION: 102-104 WK), Dose: 0, 10000, 20000 PPM IN DIET FOR 102-104 WK (STUDY DURATION: 102-104 WK)) was “inactive; negative”. For the same molecule, the carcinogen call (Species: RAT, Strain/Sex: F344/MALE, Route: ORAL, Dose: 0, 10000, 20000 PPM IN DIET FOR 102-104 WK (STUDY DURATION: 102-104 WK), Dose: 0, 10000, 20000 PPM IN DIET FOR 102-104 WK (STUDY DURATION: 102-104 WK)) was “inactive; negative”.

`O=[N+]([O-])c1cc2ccc3cc4ccccc4c4ccc(c1)c2c34` was tested, and the carcinogen call (Species: MOUSE, Strain/Sex: B6C3F1/MALE, Route: INTRAPERITONEAL, Dose: 0, 400 NMOL IN 35 µL DMSO ON DAYS 1 (1/7 TOTAL DOSE), 8 (2/7 TOTAL DOSE), AND 15 (4/7 TOTAL DOSE) AFTER BIRTH (STUDY DUR, Tumor Site: Type of Lesion: LIVER: ADENOMA OR CARCINOMA) was “active; positive”.

With `Oc1ccc2ccc3c4ccc5ccccc5c4c4c(c3c2c1O)O4` the carcinogen call (Species: MOUSE, Strain/Sex: ICR/FEMALE, Route: INTRAPERITONEAL, Dose: 0, 25 NMOL (TOTAL DOSE) ADMINISTERED IN DOSES OF 1/7, 2/7, AND 4/7 ON DAYS 1, 7, AND 15 OF LIFE, RESPECTIVELY (STUDY DUR, Tumor Site: Type of Lesion: LUNG: TUMOR) was “active; positive”, the carcinogen call (Species: MOUSE, Strain/Sex: ICR/FEMALE, Route: INTRAPERITONEAL, Dose: 0, 25 NMOL TOTAL DOSE INJECTED IN DOSES OF 1/7 ON DAY 1, 2/7 ON DAY 8, AND 4/7 ON DAY 15 OF LIFE (STUDY DURATION: 35 WK), Tumor Site: Type of Lesion: LIVER: TUMOR, LUNG: TUMOR) was “active; positive” and the carcinogen call (Species: MOUSE, Strain/Sex: ICR/MALE, Route: INTRAPERITONEAL, Dose: 0, 25 NMOL (TOTAL DOSE) ADMINISTERED IN DOSES OF 1/7, 2/7, AND 4/7 ON DAYS 1, 7, AND 15 OF LIFE, RESPECTIVELY (STUDY DUR, Tumor Site: Type of Lesion: LUNG: TUMOR, LIVER: TUMOR) was “active; positive”. For the same molecule, the carcinogen call (Species: MOUSE, Strain/Sex: ICR/MALE, Route: INTRAPERITONEAL, Dose: 0, 25 NMOL TOTAL DOSE INJECTED IN DOSES OF 1/7 ON DAY 1, 2.7 ON DAY 8, AND 4/7 ON DAY 15 OF LIFE (STUDY DURATION: 35 WK), Tumor Site: Type of Lesion: LUNG:TUMOR, LIVER: TUMOR) was “active; positive”, the carcinogen call (Species: RAT, Strain/Sex: CD-1/FEMALE, Route: INJECTION, Dose: 0, 0.2 UMOL IN 0.1 ML DMSO INJECTED BENEATH EACH OF THE 6 NIPPLES ON THE LEFT SIDE (STUDY DURATION: 41 WK), Tumor Site: Type of Lesion: MAMMARY GLAND: TUMOR) was “active; positive” and the carcinogen call (Species: RAT, Strain/Sex: STRAIN-CD/FEMALE, Route: INJECTION, Dose: 0, 0.2 UMOL IN 0.1 ML DMSO INJECTED UNDER EACH OF THE 3 LEFT THORACIC NIPPLES FOLLOWED THE NEXT DAY BY SIMILAR TREATMENT, Tumor Site: Type of Lesion: MAMMARY GLAND: TUMOR) was “active; positive”.

With `O[C@H]1C=Cc2ccc3cc4ccccc4nc3c2[C@@H]1O` the carcinogen call (Species: MOUSE, Strain/Sex: SWISS/FEMALE, Route: INTRAPERITONEAL, Dose: 0, 1.05 UMOL GIVEN AS 150 NMOL IN 5 µL DMSO WITHIN 24 HR OF BIRTH, 300 NMOL IN 10 µL DMSO ON D 8 OF LIFE, AND 600 NMOL I) was “inactive; negative” and the carcinogen call (Species: MOUSE, Strain/Sex: SWISS/MALE, Route: INTRAPERITONEAL, Dose: 0, 1.05 UMOL GIVEN AS 150 NMOL IN 5 µL DMSO WITHIN 24 HR OF BIRTH, 300 NMOL IN 10 µL DMSO ON D 8 OF LIFE, AND 600 NMOL I) was “inactive; negative”.

`NC(=S)Nc1ccccc1` was tested, and the carcinogen call (Species: MOUSE, Strain/Sex: B6C3F1/FEMALE, Route: ORAL, Dose: 0, 150, 300 PPM IN DIET, Dose: 0, 150, 300 PPM IN DIET) was “inactive; negative”, the carcinogen call (Species: MOUSE, Strain/Sex: B6C3F1/MALE, Route: ORAL, Dose: 0, 150, 300 PPM IN DIET, Dose: 0, 150, 300 PPM IN DIET) was “inactive; negative” and the carcinogen call (Species: RAT, Strain/Sex: F344/FEMALE, Route: ORAL, Dose: 0, 60, 120 PPM IN DIET, Dose: 0, 60, 120 PPM IN DIET) was “inactive; negative”. The carcinogen call (Species: RAT, Strain/Sex: F344/MALE, Route: ORAL, Dose: 0, 60, 120 PPM IN DIET, Dose: 0, 60, 120 PPM IN DIET) was “inactive; negative”.

In the case of `ClC[C@@H]1O[C@@H]1Cl`, the carcinogen call (Species: MOUSE, Strain/Sex: ICR/FEMALE, Route: DERMAL, Dose: 10 MG IN 0.1 ML ACETONE 3/WK FOR LIFE, Tumor Site: Type of Lesion: INTEGUMENTARY SYSTEM (SKIN): PAPILLOMA, SQUAMOUS CELL CARCINOMA) was “active; positive” and the carcinogen call (Species: MOUSE, Strain/Sex: ICR/FEMALE, Route: SUBCUTANEOUS, Dose: 500 UG IN 0.05 ML TRICAPRYLIN 1/WK FOR LIFE, Tumor Site: Type of Lesion: INJECTION SITE: FIBROSARCOMA) was “active; positive”.

For `[Ni]#[Sb]`, the carcinogen call (Species: RAT, Strain/Sex: F344/MALE, Route: INTRAMUSCULAR, Tumor Site: Type of Lesion: INJECTION SITE: SARCOMA) was “active; positive”.

From PubChem BioAssay AID1259411 (Chemical Carcinogenesis Research Information System (CCRIS), 2018)
